Assay results: patent publication US20050282755A1, “Compositions having antimicrobial activity and uses thereof” (priority 2004, published 2005)
Values after ≈ are worked out from the molar mass of the structure shown.

How the values were obtained:
S. aureus (Rosenbach) = assay: Broth microdilution assay for MIC (20% TSB, 50 mM Na2CO3, 1 mM MgCl2), Table 4A; type: cell-based, Staphylococcus aureus; settings: 3 log or greater reduction in bacterial growth over 16 hours
Protocol: S. dublin (Lane), S. aureus (Rosenbach), P. acnes, ATCC 6919, E. coli K12 TOP10, and E. coli K12 55099 (protease neg.) bacterial strains were tested in the microbial inhibition assays described hereafter. The S. dublin (Lane), and S. aureus (Rosenbach) strains are available from ATCC (Staphylococcus aureus subsp. aureus Rosenbach (Number: 13150) and Salmonella choleraesuis serotype dublin (Number: 39184)). The strain of P. acnes was purchased from ATCC (strain #6919) (Manassas, Va.). The E. coli K12 strains TOP 10 and 55099 were purchased from Invitrogen (Carlsbad, Calif.) and ATCC respectively. HeLa cells were purchased from ATCC (CCL2). Tryptic soy broth (TSB), Brucella broth, reinforced Clostridial broth and agar were purchased from Becton & Dickinson (distributed by VWR, West Chester, Pa.). All plastic consumables were purchased from VWR (West Chester, Pa.). […]
The minimum inhibitory concentration (MIC) of peptide compositions for S. aureus, S. dublin and E. coli was determined in a broth microdilution assay. […] The MIC for each peptide for each microorganism was determined by three methods. The growth of bacteria was directly determined by measuring the absorption at 600 nm using a Versamax microplate reader (Molecular Devices). […] After incubation for 16 hours at 37° C. bacterial growth was evaluated and documented (Alpha Innotech gel documentation system).

Jurkat cells = type: cell-based; settings: 16 h
Protocol: Toxicity of peptide compositions for mammalian cells was determined by using a metabolic viability assay. For this assay 4×10^5 HeLa cells were seeded per well into a microwell plate (50 microliters volume). Jurkat cells also were utilized in separate experiments. The cells were incubated for 16 hours at 37° C. under mammalian cell culture conditions. Two fold serial dilutions for each peptide were prepared and added to the cells (final volume 100 microliters) and incubated for 16 hours at 37° C. For each dilution series control wells containing cells without peptide were included. The metabolic activity and viability of the cells were determined by using a commercially available assay (CellTiter96 assay, Promega Corp.). According to manufacturer's protocol 20 microliters of CellTiter reagent was added to each well and incubated at 37° C. for 1-4 hours. The CellTiter assay is a commercial version of the MTT assay, which measures the conversion of a tetrazolium […] into a colored formazan salt in metabolically active cells. The formation of the formazan product can be measured at 470 nm and is generally accepted as a measure of cellular viability. The cells were incubated at 37° C. and monitored for color development. The conversion of CellTiter reagent was measured at 470 nm using a Versamax plate reader (Molecular Devices). The viability of peptide treated cells is expressed as IC50 (i.e., concentration that leads to a 50% reduction of viability relative to the untreated control). Table 7A reports IC50 values for HeLa cells cultured in OptiMEM or 10% FBS when contacted with peptide compositions from Table 3, and Table 7B reports IC50 values for HeLa cells or Jurkat cells contacted with peptide compositions from Table 3.

[1] = test system: E. coli K12 55099 (protease neg.); settings: 3 log or greater reduction in bacterial growth over 16 hours

## CSCC[C@@H](NC(=O)[C@@H](Cc1ccccc1)NC(=O)[C@@H](CC(N)=O)NC(=O)[C@@H](CCCNC(=N)N)NC(=O)[C@@H](CO)NC(=O)[C@@H](Cc1c[nH]c2ccccc12)NC(=O)[C@@H](CC(=O)O)NC(=O)[C@@H](CCCNC(=N)N)NC(=O)[C@@H](Cc1c[nH]c2ccccc12)NC(=O)[C@@H](CCCNC(=N)N)NC(=O)[C@@H](CO)NC(=O)[C@@H](CCCNC(=N)N)NC(=O)CNC(=O)[C@H](NC(=O)[C@@H](CCCNC(=N)N)NC(=O)[C@@H](CO)NC(=O)[C@H](NC(=O)[C@@H](CCCNC(=N)N)NC(=O)[C@H](NC(C)=O)[C@H](C)O)C(C)C)[C@H](C)O)C(=O)N[C@H](CCCNC(=N)N)C(=O)N[C@H](C)C(=O)N[C@H](C)C(N)=O [Peptide 30, Ac-trvsrtgrsrwrdwsrnfmraa-NH2]
S. aureus (Rosenbach)
  Minimum inhibitory concentration (MIC) S. aureus: 8 µM (≈ 22.4 µg/mL)
Jurkat cells
  IC50: > 100 µM
[1]
  Minimum inhibitory concentration (MIC) E. coli 55099: 2 µM (≈ 5.59 µg/mL)
